Measured values taken from US20050256301A1 (The University of Queensland, priority 1998, published 2005).
Bridge positions count the residues as written; N and C are the ends. Ends that are not written are not given here. Peptide text beside a SMILES is read from it.

Columns and labels:
[1] = test system: bovine adrenal chromaffin cells; type: cell-based
in vitro = conditions: human, plasma
[2] = biological target: endoproteinase Glu-C (Endo Glu-C) (Staphylococcus aureus, UniProt P0C1U8); conditions: 24 h, pH 8
Sequence of endoproteinase Glu-C (Endo Glu-C) (P0C1U8 69-336 limits assumed): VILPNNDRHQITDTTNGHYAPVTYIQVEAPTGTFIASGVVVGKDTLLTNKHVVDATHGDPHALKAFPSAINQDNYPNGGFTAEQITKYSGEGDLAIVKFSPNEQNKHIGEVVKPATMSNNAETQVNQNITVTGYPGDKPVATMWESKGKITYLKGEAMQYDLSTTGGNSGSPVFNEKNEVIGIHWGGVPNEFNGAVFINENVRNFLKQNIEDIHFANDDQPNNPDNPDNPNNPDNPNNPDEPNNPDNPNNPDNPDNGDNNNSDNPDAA

Compound | inhibition of nicotine-evoked catecholamine release, activity relative to linear MII [1] | remaining at 24 h (in vitro) [%] | intact peptide remaining with Endo Glu-C [2]
Gly Cys Cys Ser Asn Pro Val Cys His Leu Glu His Ser Asn Leu Cys Gly Gly Ala Ala Gly (GCCSNPVCHLEHSNLCGGAAG; also: cyclic, ring type and places not given here) [cMII-5, cyclic MII with five residue linker GGAAG] | comparable to linear MII | – | –
CC(C)C[C@@H]1NC(=O)[C@H](CC(N)=O)NC(=O)[C@H](CO)NC(=O)[C@H](Cc2c[nH]cn2)NC(=O)[C@H](CCC(=O)O)NC(=O)[C@H](CC(C)C)NC(=O)[C@H](Cc2c[nH]cn2)NC(=O)[C@@H]2CSSC[C@@H]3NC(=O)CNC(=O)CNC(=O)[C@H](C)NC(=O)[C@H](C)NC(=O)CNC(=O)[C@H](C)NC(=O)CNC(=O)CNC(=O)[C@H](CSSC[C@H](NC3=O)C(=O)N[C@@H](CO)C(=O)N[C@@H](CC(N)=O)C(=O)N3CCC[C@H]3C(=O)N[C@@H](C(C)C)C(=O)N2)NC1=O [cMII-7, Gly Cys Cys Ser Asn Pro Val Cys His Leu GIu His Ser Asn Leu Cys Gly Gly Ala Gly Ala Ala Gly] (cyclo(AAGGCCSNPVCHLEHSNLCGGAG); disulfide 5-11, 6-19) | comparable to linear MII | ~90 | –
CC(C)C[C@@H]1NC(=O)[C@H](CC(N)=O)NC(=O)[C@H](CO)NC(=O)[C@H](Cc2c[nH]cn2)NC(=O)[C@H](CCC(=O)O)NC(=O)[C@H](CC(C)C)NC(=O)[C@H](Cc2c[nH]cn2)NC(=O)[C@@H]2CSSC[C@@H]3NC(=O)CNC(=O)CNC(=O)CNC(=O)[C@H](C)NC(=O)[C@H](C)NC(=O)CNC(=O)CNC(=O)[C@H](CSSC[C@H](NC3=O)C(=O)N[C@@H](CO)C(=O)N[C@@H](CC(N)=O)C(=O)N3CCC[C@H]3C(=O)N[C@@H](C(C)C)C(=O)N2)NC1=O [cMII-6] (cyclo(AAGGGCCSNPVCHLEHSNLCGG); disulfide 6-12, 7-20) | comparable to linear MII | ~90 | remains entirely intact
